Measured values from patent US10323022B2, “Pyrrolidinyl urea, pyrrolidinyl thiourea and pyrrolidinyl guanidine compounds as TrkA kinase inhibitors” (Array BioPharma Inc., priority 2011, dated 2019).
pIC50: −log10 of the molar value. Counter-ions that a name gives are not always drawn.

What follows are compounds tested against TrkA (Homo sapiens (Human), UniProt P04629) (assay: TrkA Omnia Assay). Details: averaged IC50; 20 nM enzyme, 500 μM ATP, 10 μM peptide substrate.
Assay type: biochemical
How it was run: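 Continuous fluorescent kinase read-out (ex 360 nm, em 485 nm) over 70 min, with initial rates fitted to 4- or 5-parameter logistic curves for IC50. Final conditions: 500 μM ATP, 10 μM Omnia Tyr Peptide #4, 20 nM TrkA, MOPS pH 7.5 buffer with MgCl2 and Triton X-100; enzyme and compound preincubated 10 min at ambient temperature.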

Sequence of TrkA (P04629 33-796): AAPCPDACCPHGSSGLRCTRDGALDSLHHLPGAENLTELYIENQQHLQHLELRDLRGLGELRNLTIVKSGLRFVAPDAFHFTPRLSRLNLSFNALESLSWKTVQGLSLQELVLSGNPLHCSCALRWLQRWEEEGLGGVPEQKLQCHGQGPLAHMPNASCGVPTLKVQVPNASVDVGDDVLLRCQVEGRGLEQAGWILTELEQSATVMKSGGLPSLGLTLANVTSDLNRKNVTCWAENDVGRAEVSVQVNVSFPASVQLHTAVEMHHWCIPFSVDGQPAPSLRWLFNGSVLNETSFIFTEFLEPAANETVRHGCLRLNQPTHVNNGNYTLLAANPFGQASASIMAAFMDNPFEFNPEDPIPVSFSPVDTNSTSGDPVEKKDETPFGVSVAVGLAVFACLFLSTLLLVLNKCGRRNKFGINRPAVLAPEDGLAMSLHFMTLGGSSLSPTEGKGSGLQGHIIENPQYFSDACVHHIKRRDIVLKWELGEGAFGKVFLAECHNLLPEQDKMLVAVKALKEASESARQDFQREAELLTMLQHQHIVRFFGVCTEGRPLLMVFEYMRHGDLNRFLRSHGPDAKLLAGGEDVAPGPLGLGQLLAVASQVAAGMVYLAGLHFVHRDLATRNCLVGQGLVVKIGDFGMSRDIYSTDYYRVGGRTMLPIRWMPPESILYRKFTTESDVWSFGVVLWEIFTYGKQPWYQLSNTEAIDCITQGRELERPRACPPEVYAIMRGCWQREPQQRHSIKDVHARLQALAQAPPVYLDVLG

**Q.** With `COCCOc1nn(-c2ccccc2)c(NC(=O)N[C@@H]2CN(CCOC)C[C@H]2c2ccc(F)c(F)c2)c1C` [Example 137, 1-((3S,4R)-4-(3,4-difluorophenyl)-1-(2-methoxyethyl)pyrrolidin-3-yl)-3-(3-(2-methoxy-ethoxy)-4-methyl-1-phenyl-1H-pyrazol-5-yl)urea] as the compound, how does the pIC50 read?
**A.** The pIC50 was > 7.00.

**Q.** With `CCOc1nn(-c2ccccc2)c(NC(=O)N[C@@H]2CN(CCOC)C[C@H]2c2cc(F)cc(F)c2)c1C` [Example 138, 1-((3S,4R)-4-(3,5-difluorophenyl)-1-(2-methoxyethyl)pyrrolidin-3-yl)-3-(3-ethoxy-4-methyl-1-phenyl-1H-pyrazol-5-yl)urea] as the compound, how does the pIC50 read?
**A.** Its pIC50 is > 7.00.

**Q.** How did the pIC50 turn out when `CCOc1nn(-c2ccccc2)c(NC(=O)N[C@@H]2CN(CCOC)C[C@H]2c2ccccc2)c1C` [Example 139] was run?
**A.** Its pIC50 is > 7.00.

**Q.** How did the pIC50 turn out when `COCCN1C[C@@H](NC(=O)Nc2c(C)c(OC)nn2-c2ccccc2)[C@H](c2ccc(F)c(F)c2)C1` [Example 140, 1-((3S,4R)-4-(3,4-difluorophenyl)-1-(2-methoxyethyl)pyrrolidin-3-yl)-3-(3-methoxy-4-methyl-1-phenyl-1H-pyrazol-5-yl)urea] was run?
**A.** Its pIC50 is > 7.00.

**Q.** How did the pIC50 turn out when `COCCN1C[C@@H](NC(=O)Nc2c(C)c(OCC#N)nn2-c2ccccc2)[C@H](c2ccc(F)c(F)c2)C1` [Example 141, 1-(3-(cyanomethoxy)-4-methyl-1-phenyl-1H-pyrazol-5-yl)-3-((3S,4R)-4-(3,4-difluorophenyl)-1-(2-methoxyethyl)pyrrolidin-3-yl)urea] was run?
**A.** Its pIC50 is > 7.00.

**Q.** With `COCCN1C[C@@H](NC(=O)Nc2c(C)c(OCc3ccc(OC)cc3)nn2-c2ccccc2)[C@H](c2ccc(F)c(F)c2)C1` [Example 142, 1-((3S,4R)-4-(3,4-difluoro-phenyl)-1-(2-methoxyethyl)pyrrolidin-3-yl)-3-(3-(4-methoxybenzyloxy)-4-methyl-1-phenyl-1H-pyrazol-5-yl)urea] as the compound, how does the pIC50 read?
**A.** Its pIC50 is > 7.00.

**Q.** How did the pIC50 turn out when `COCCN1C[C@@H](NC(=O)Nc2c(C)c(OC)nn2-c2ccccc2)[C@H](c2ccc(F)cc2)C1` [Example 143, 1-((3S,4R)-4-(4-fluorophenyl)-1-(2-methoxyethyl)pyrrolidin-3-yl)-3-(3-methoxy-4-methyl-1-phenyl-1H-pyrazol-5-yl)urea] was run?
**A.** The pIC50 was > 7.00.

**Q.** `COCCN1C[C@@H](NC(=O)Nc2c(C)c(OCCF)nn2-c2ccccc2)[C@H](c2ccc(F)c(F)c2)C1` [Example 144, 1-((3S,4R)-4-(3,4-difluorophenyl)-1-(2-methoxyethyl)pyrrolidin-3-yl)-3-(3-(2-fluoro-ethoxy)-4-methyl-1-phenyl-1H-pyrazol-5-yl)urea] was tested. Which pIC50 did it give?
**A.** Its pIC50 is > 7.00.

**Q.** With `COCCN1C[C@@H](NC(=O)Nc2c(C)c(OCC(C)(C)O)nn2-c2ccccc2)[C@H](c2ccc(F)c(F)c2)C1` [Example 145, 1-((3S,4R)-4-(3,4-difluorophenyl)-1-(2-methoxyethyl)pyrrolidin-3-yl)-3-(3-(2-hydroxy-2-methylpropoxy)-4-methyl-1-phenyl-1H-pyrazol-5-yl)urea] as the compound, how does the pIC50 read?
**A.** The pIC50 was > 7.00.

**Q.** `CCOc1cc(NC(=O)N[C@@H]2CN(CCOC)C[C@H]2c2ccc(F)c(F)c2)n(-c2ccccc2)n1` [Example 146, 1-((3S,4R)-4-(3,4-difluorophenyl)-1-(2-methoxyethyl)pyrrolidin-3-yl)-3-(3-ethoxy-1-phenyl-1H-pyrazol-5-yl)urea] was tested. Which pIC50 did it give?
**A.** The pIC50 was > 7.00.

**Q.** How did the pIC50 turn out when `CCOc1nn(-c2ccccc2)c(NC(=O)N[C@@H]2CN(CCOC)C[C@H]2c2ccc(F)cc2)c1C` [Example 147, 1-(3-ethoxy-4-methyl-1-phenyl-1H-pyrazol-5-yl)-3-((3S,4R)-4-(4-fluorophenyl)-1-(2-methoxyethyl)pyrrolidin-3-yl)urea] was run?
**A.** Its pIC50 is > 7.00.

**Q.** `CCOc1nn(-c2ccccc2)c(NC(=O)N[C@@H]2CN(CCOC)C[C@H]2c2cccc(F)c2)c1C` [Example 148, 1-(3-ethoxy-4-methyl-1-phenyl-1H-pyrazol-5-yl)-3-((3S,4R)-4-(3-fluorophenyl)-1-(2-methoxyethyl)pyrrolidin-3-yl)urea] was tested. Which pIC50 did it give?
**A.** Its pIC50 is > 7.00.

**Q.** `COCCN1C[C@@H](NC(=O)Nc2c(C)c(OCCO)nn2-c2ccccc2)[C@H](c2cc(F)cc(F)c2)C1` [Example 149, 1-((3S,4R)-4-(3,5-difluorophenyl)-1-(2-methoxyethyl)pyrrolidin-3-yl)-3-(3-(2-hydroxy-ethoxy)-4-methyl-1-phenyl-1H-pyrazol-5-yl)urea] was tested. Which pIC50 did it give?
**A.** The pIC50 was > 7.00.

**Q.** With `COCCN1C[C@@H](NC(=O)Nc2c3c(nn2C2CCCCC2)CCC3)[C@H](c2ccc(F)c(F)c2)C1` [Example 150, 1-(2-cyclohexyl-2,4,5,6-tetrahydrocyclopenta [c]pyrazol-3-yl)-3-((3S,4R)-4-(3,4-difluorophenyl)-1-(2-methoxyethyl)pyrrolidin-3-yl)urea] as the compound, how does the pIC50 read?
**A.** The pIC50 was > 7.00.

**Q.** `COCCN1C[C@@H](NC(=O)Nc2c3c(nn2-c2ccncc2)CCC3)[C@H](c2ccccc2)C1` [Example 151, 1-((3S,4R)-1-(2-methoxyethyl)-4-phenylpyrrolidin-3-yl)-3-(2-(pyridin-4-yl)-2,4,5,6-tetrahydrocyclopenta[c]pyrazol-3-yl)urea] was tested. Which pIC50 did it give?
**A.** The pIC50 was > 7.00.

**Q.** With `COCCN1C[C@@H](NC(=O)Nc2cc(-c3cnc(C)cn3)nn2C)[C@H](c2ccc(F)c(F)c2)C1` [Example 152, 1-((3S,4R)-4-(3,4-difluorophenyl)-1-(2-methoxyethyl)pyrrolidin-3-yl)-3-(1-methyl-3-(5-methylpyrazin-2-yl)-1H-pyrazol-5-yl)urea] as the compound, how does the pIC50 read?
**A.** Its pIC50 is > 7.00.

**Q.** With `COCCN1C[C@@H](NC(=O)Nc2c(C)c(-c3cnc(C)cn3)nn2C)[C@H](c2ccc(F)c(F)c2)C1` [Example 153, 1-((3S,4R)-4-(3,4-difluorophenyl)-1-(2-methoxyethyl)pyrrolidin-3-yl)-3-(1,4-dimethyl-3-(5-methylpyrazin-2-yl)-1H-pyrazol-5-yl) urea] as the compound, how does the pIC50 read?
**A.** The pIC50 was 6.00 to 7.00.

**Q.** How did the pIC50 turn out when `CCOC(=O)c1cnn(-c2ccccc2)c1NC(=O)N[C@@H]1CN(CCOC)C[C@H]1c1ccc(F)c(F)c1` [Example 154, ethyl 5-(3-((3S,4R)-4-(3,4-difluorophenyl)-1-(2-methoxyethyl)pyrrolidin-3-yl)ureido)-1-phenyl-1H-pyrazole-4-carboxylate] was run?
**A.** The pIC50 was 5.00 to 6.00.

**Q.** With `COCCN1C[C@@H](NC(=O)Nc2cc(-c3cnccn3)nn2C)[C@H](c2ccc(F)c(F)c2)C1` [Example 155, 1-((3S,4R)-4-(3,4-difluorophenyl)-1-(2-methoxyethyl)pyrrolidin-3-yl)-3-(1-methyl-3-(pyrazin-2-yl)-1H-pyrazol-5-yl)urea] as the compound, how does the pIC50 read?
**A.** The pIC50 was > 7.00.

**Q.** How did the pIC50 turn out when `COCCN1C[C@@H](NC(=O)Nc2c(-c3ccccc3)c(OC)nn2C)[C@H](c2ccc(F)c(F)c2)C1` [Example 156, 1-((3S,4R)-4-(3,4-difluorophenyl)-1-(2-methoxyethyl)pyrrolidin-3-yl)-3-(3-methoxy-1-methyl-4-phenyl-1H-pyrazol-5-yl)urea] was run?
**A.** The pIC50 was > 7.00.

**Q.** How did the pIC50 turn out when `CCOc1nn(C)c(NC(=O)N[C@@H]2CN(CCOC)C[C@H]2c2ccc(F)c(F)c2)c1-c1ccccc1` [Example 157, 1-((3S,4R)-4-(3,4-difluorophenyl)-1-(2-methoxyethyl)pyrrolidin-3-yl)-3-(3-ethoxy-1-methyl-4-phenyl-1H-pyrazol-5-yl)urea] was run?
**A.** The pIC50 was > 7.00.

**Q.** With `COCCN1C[C@@H](NC(=O)Nc2c3c(nn2-c2ccccc2)CNC3)[C@H](c2ccccc2)C1` [Example 158, 1-((3S,4R)-1-(2-methoxyethyl)-4-phenylpyrrolidin-3-yl)-3-(2-phenyl-2,4,5,6-tetrahydropyrrolo[3,4-c]pyrazol-3-yl)urea dihydrochloride] as the compound, how does the pIC50 read?
**A.** The pIC50 was 5.00 to 6.00.

**Q.** With `COCCN1C[C@@H](NC(=O)Nc2c3c(nn2-c2ccccc2)CN(C(C)=O)C3)[C@H](c2ccccc2)C1` [Example 159, 1-(5-acetyl-2-phenyl-2,4,5,6-tetrahydropyrrolo[3,4-c]pyrazol-3-yl)-3-((3S,4R)-1-(2-methoxyethyl)-4-phenylpyrrolidin-3-yl)urea] as the compound, how does the pIC50 read?
**A.** The pIC50 was 6.00 to 7.00.

**Q.** With `COCCN1C[C@@H](NC(=O)Nc2c(CO)c(COC)nn2-c2ccccc2)[C@H](c2ccc(F)c(F)c2)C1` [Example 160, 1-((3S,4R)-4-(3,4-difluorophenyl)-1-(2-methoxyethyl)pyrrolidin-3-yl)-3-(4-(hydroxymethyl)-3-(methoxymethyl)-1-phenyl-1H-pyrazol-5-yl)urea] as the compound, how does the pIC50 read?
**A.** The pIC50 was 6.00 to 7.00.

**Q.** `COCCN1C[C@@H](NC(=O)Nc2cc(-c3ccc(C(=O)O)cc3)nn2C)[C@H](c2ccc(F)c(F)c2)C1` [Example 161, 4-(5-(3-((3S,4R)-4-(3,4-difluorophenyl)-1-(2-methoxyethyl)pyrrolidin-3-yl)ureido)-1-methyl-1H-pyrazol-3-yl)benzoic acid] was tested. Which pIC50 did it give?
**A.** The pIC50 was > 7.00.

**Q.** With `COCCN1C[C@@H](NC(=O)Nc2cc(-c3ccc(C(N)=O)cc3)nn2C)[C@H](c2ccc(F)c(F)c2)C1` [Example 162, 4-(5-(3-((3S,4R)-4-(3,4-difluorophenyl)-1-(2-methoxyethyl)pyrrolidin-3-yl)ureido)-1-methyl-1H-pyrazol-3-yl)benzamide] as the compound, how does the pIC50 read?
**A.** The pIC50 was > 7.00.

**Q.** How did the pIC50 turn out when `CNC(=O)c1ccc(-c2cc(NC(=O)N[C@@H]3CN(CCOC)C[C@H]3c3ccc(F)c(F)c3)n(C)n2)cc1` [Example 163, 4-(5-(3-((3S,4R)-4-(3,4-difluorophenyl)-1-(2-methoxyethyl)pyrrolidin-3-yl)ureido)-1-methyl-1H-pyrazol-3-yl)-N-methylbenzamide] was run?
**A.** Its pIC50 is > 7.00.

**Q.** With `COCCN1C[C@@H](NC(=O)Nc2cc(-c3ccc(CO)cc3)nn2C)[C@H](c2ccc(F)c(F)c2)C1` [Example 165, 1-((3S,4R)-4-(3,4-difluorophenyl)-1-(2-methoxyethyl)pyrrolidin-3-yl)-3-(3-(4-(hydroxymethyl)phenyl)-1-methyl-1H-pyrazol-5-yl)urea] as the compound, how does the pIC50 read?
**A.** The pIC50 was > 7.00.

**Q.** How did the pIC50 turn out when `COCCN1C[C@@H](NC(=O)Nc2cc(-c3ccc(S(C)(=O)=O)cc3)nn2C)[C@H](c2ccc(F)c(F)c2)C1` [Example 166, 1-((3S,4R)-4-(3,4-difluorophenyl)-1-(2-methoxyethyl)pyrrolidin-3-yl)-3-(1-methyl-3-(4-(methylsulfonyl)phenyl)-1H-pyrazol-5-yl)urea] was run?
**A.** Its pIC50 is > 7.00.

**Q.** How did the pIC50 turn out when `COCCN1C[C@@H](NC(=O)Nc2c(F)c(C)nn2-c2ccccc2)[C@H](c2ccc(F)c(F)c2)C1` [Example 167, 1-((3S,4R)-4-(3,4-difluorophenyl)-1-(2-methoxyethyl)pyrrolidin-3-yl)-3-(4-fluoro-3-methyl-1-phenyl-1H-pyrazol-5-yl)urea] was run?
**A.** The pIC50 was > 7.00.
